{"source": "paper PMC4770715", "about": "“LIM kinase inhibitors disrupt mitotic microtubule organization and impair tumor cell proliferation” (Oncotarget, 2015)", "test_in_all_cases": "biochemical", "design_in_all_cases": "KINOMEscan active-site competition binding, percent of control (100 = no competition)", "settings_in_all_cases": "competition binding, percent control", "key": {"BMPR1A": {"molecular_target": "BMPR1A (Homo sapiens, UniProt P36894)"}, "CAMK2A": {"molecular_target": "CAMK2A (Homo sapiens, UniProt Q9UQM7)"}, "CAMKK2": {"molecular_target": "CAMKK2 (Homo sapiens, UniProt Q96RR4)", "sequence (Q96RR4 whole entry)": "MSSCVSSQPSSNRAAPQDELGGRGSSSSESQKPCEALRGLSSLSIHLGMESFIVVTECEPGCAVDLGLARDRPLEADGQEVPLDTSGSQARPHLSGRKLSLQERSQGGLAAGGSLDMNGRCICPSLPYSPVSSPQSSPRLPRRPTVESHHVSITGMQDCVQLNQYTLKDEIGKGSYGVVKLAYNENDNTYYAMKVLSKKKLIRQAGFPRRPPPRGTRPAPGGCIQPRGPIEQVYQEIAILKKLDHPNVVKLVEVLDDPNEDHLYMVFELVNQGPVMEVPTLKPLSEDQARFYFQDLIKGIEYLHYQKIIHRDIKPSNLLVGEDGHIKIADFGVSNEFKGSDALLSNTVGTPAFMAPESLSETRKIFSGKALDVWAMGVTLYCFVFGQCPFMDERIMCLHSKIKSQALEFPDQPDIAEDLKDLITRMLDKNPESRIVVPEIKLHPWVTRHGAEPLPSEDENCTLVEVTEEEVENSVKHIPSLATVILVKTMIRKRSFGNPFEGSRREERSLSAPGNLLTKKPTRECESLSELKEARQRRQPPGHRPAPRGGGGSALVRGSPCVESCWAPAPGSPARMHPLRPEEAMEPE"}, "CDK5": {"molecular_target": "CDK5 (Homo sapiens, UniProt Q00535)", "sequence (Q00535 whole entry)": "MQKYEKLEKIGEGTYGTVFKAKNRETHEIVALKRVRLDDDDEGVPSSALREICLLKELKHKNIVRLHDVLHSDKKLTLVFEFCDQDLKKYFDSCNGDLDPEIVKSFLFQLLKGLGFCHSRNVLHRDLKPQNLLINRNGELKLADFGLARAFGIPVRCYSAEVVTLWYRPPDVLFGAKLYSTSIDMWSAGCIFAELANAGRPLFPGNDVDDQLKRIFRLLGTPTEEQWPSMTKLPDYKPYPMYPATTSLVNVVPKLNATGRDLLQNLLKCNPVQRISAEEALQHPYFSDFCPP"}, "CDKL5": {"molecular_target": "CDKL5 (Homo sapiens, UniProt O76039)"}, "CSNK1D": {"molecular_target": "CSNK1D (Homo sapiens, UniProt P48730)", "sequence (P48730 whole entry)": "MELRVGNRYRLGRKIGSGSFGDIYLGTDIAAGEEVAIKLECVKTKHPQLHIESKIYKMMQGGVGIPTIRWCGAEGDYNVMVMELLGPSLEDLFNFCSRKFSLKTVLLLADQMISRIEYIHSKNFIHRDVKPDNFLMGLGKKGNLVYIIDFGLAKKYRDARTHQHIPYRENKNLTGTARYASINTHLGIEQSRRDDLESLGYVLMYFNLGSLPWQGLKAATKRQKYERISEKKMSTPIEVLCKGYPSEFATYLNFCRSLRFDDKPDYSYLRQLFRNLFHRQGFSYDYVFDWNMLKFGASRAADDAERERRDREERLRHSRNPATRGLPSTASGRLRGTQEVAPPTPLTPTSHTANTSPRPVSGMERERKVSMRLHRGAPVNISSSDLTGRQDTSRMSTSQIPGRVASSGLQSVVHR"}, "DDR1": {"molecular_target": "DDR1 (Homo sapiens, UniProt Q08345)"}, "DRAK2": {"molecular_target": "T1, DRAK2 (Homo sapiens, UniProt O94768)", "T1 construct": "gene STK17B"}, "FLT3(K663Q)": {"molecular_target": "FLT3(K663Q) (Homo sapiens, UniProt P36888, K663Q)"}, "HIPK2": {"molecular_target": "HIPK2 (Homo sapiens, UniProt Q9H2X6)", "sequence (Q9H2X6 whole entry)": "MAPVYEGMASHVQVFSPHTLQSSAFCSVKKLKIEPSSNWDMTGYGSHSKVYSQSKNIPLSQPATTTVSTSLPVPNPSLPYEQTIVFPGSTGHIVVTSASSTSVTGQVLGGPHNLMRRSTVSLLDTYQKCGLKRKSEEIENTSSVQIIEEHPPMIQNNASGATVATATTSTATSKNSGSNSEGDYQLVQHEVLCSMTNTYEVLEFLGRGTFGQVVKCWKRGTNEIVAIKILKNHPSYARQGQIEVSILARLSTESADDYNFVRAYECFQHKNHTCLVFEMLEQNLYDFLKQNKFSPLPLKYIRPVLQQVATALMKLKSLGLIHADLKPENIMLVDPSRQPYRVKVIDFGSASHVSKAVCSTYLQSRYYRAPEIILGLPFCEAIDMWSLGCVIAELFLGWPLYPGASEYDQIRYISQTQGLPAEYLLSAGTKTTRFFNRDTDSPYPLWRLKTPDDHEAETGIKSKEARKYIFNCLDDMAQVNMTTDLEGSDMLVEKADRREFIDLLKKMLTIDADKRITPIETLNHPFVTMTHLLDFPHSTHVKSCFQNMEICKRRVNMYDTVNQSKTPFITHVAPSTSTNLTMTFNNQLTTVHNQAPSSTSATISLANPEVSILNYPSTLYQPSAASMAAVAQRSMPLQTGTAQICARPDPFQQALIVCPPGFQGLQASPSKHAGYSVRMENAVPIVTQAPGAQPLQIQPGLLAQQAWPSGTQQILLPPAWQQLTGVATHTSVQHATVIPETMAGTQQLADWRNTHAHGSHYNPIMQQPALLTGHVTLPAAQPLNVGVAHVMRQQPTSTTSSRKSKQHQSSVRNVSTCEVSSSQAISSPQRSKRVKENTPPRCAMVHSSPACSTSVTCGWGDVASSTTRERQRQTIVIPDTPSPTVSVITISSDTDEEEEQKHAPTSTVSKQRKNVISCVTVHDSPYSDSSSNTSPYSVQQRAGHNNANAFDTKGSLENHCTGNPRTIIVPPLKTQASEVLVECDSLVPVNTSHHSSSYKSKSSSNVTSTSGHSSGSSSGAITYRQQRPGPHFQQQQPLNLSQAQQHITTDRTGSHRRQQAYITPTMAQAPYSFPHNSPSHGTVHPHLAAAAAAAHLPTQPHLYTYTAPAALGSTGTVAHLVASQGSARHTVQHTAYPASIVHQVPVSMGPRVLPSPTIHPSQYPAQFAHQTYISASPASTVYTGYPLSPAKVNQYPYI"}, "MARK3": {"molecular_target": "MARK3 (Homo sapiens, UniProt P27448)"}, "MYO3A": {"molecular_target": "MYO3A (Homo sapiens, UniProt Q8NEV4)"}, "PAK3": {"molecular_target": "PAK3 (Homo sapiens, UniProt O75914)"}, "PDPK1": {"molecular_target": "PDPK1 (Homo sapiens, UniProt O15530)"}, "PFCDPK1(P.falciparum)": {"molecular_target": "T2, PFCDPK1(P.falciparum) (Plasmodium falciparum, UniProt P62344)", "T2 construct": "gene CDPK1"}, "PFTK1": {"molecular_target": "T3, PFTK1 (Homo sapiens, UniProt O94921)", "T3 construct": "gene CDK14"}, "PIK4CB": {"molecular_target": "T4, PIK4CB (Homo sapiens, UniProt Q9UBF8)", "T4 construct": "gene PI4KB"}, "PLK2": {"molecular_target": "PLK2 (Homo sapiens, UniProt Q9NYY3)"}, "PRKCH": {"molecular_target": "PRKCH (Homo sapiens, UniProt P24723)", "sequence (P24723 whole entry)": "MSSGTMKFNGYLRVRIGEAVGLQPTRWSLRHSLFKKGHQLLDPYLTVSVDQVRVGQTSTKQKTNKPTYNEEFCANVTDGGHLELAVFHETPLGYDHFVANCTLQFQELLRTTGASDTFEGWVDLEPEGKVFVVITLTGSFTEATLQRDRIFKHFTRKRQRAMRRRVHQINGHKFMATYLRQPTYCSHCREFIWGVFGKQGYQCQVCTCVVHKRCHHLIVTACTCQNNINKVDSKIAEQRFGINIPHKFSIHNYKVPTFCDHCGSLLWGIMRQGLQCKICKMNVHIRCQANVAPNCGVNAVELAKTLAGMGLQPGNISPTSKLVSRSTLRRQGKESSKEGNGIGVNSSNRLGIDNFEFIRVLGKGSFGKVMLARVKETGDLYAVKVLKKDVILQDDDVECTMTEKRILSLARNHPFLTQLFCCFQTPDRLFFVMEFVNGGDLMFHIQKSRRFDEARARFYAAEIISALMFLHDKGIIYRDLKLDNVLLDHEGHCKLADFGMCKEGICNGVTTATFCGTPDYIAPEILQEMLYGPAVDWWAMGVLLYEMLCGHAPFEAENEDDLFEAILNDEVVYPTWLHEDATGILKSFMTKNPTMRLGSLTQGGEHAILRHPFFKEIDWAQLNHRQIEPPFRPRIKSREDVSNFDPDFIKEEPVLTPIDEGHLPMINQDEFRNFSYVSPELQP"}, "PRKD1": {"molecular_target": "PRKD1 (Homo sapiens, UniProt Q15139)", "sequence (Q15139 whole entry)": "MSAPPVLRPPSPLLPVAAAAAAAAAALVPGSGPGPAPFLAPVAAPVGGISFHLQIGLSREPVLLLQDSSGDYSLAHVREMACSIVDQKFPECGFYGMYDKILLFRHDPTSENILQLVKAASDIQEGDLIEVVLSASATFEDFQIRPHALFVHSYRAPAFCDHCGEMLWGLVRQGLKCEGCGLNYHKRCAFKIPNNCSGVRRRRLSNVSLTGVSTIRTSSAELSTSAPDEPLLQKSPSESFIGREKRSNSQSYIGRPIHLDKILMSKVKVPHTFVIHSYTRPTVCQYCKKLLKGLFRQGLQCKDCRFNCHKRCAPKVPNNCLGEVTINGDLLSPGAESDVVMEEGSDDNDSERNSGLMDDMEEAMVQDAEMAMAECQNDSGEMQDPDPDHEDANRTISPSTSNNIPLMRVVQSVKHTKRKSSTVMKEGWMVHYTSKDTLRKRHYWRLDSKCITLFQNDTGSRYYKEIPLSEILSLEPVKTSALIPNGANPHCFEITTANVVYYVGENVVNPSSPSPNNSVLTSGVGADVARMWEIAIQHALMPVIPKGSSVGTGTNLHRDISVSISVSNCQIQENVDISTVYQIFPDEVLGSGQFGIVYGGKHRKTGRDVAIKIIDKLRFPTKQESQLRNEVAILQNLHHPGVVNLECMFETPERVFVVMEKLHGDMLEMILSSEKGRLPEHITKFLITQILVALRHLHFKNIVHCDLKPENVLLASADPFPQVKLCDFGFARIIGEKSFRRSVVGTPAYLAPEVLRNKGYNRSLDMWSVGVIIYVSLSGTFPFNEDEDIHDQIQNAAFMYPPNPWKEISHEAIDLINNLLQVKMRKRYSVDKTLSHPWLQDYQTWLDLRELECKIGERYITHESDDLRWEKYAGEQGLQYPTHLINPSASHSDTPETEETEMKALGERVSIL"}, "PRKD3": {"molecular_target": "PRKD3 (Homo sapiens, UniProt O94806)", "sequence (O94806 whole entry)": "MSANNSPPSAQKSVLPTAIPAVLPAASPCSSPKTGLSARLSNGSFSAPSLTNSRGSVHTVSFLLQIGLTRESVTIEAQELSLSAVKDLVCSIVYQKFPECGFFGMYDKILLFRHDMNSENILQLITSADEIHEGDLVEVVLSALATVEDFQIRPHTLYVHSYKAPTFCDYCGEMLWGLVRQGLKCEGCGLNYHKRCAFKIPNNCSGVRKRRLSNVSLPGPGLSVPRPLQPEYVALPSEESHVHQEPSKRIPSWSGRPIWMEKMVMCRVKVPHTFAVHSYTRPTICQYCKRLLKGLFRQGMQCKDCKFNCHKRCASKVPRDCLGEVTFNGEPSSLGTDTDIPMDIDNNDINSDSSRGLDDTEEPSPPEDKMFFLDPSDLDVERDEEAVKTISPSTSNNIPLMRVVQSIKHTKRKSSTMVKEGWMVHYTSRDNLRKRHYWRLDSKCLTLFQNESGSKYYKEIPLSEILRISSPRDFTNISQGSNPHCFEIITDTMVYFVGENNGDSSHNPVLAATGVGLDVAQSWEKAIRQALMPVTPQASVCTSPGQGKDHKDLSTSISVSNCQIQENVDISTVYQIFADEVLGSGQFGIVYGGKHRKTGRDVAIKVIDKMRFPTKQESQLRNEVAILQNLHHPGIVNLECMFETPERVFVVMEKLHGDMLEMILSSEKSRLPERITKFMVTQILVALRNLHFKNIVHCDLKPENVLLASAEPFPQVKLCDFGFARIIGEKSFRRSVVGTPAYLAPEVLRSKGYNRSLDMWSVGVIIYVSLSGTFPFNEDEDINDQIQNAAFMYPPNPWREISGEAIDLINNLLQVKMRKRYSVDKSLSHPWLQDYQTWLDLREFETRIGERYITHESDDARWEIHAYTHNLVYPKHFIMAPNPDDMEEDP"}, "RET(V804M)": {"molecular_target": "RET(V804M) (Homo sapiens, UniProt P07949, V804M)"}, "STK39": {"molecular_target": "STK39 (Homo sapiens, UniProt Q9UEW8)"}}, "data": [{"smiles": "COc1ccc(-c2cnccc2-c2cnc(NC(=O)C(C)C)s2)c(C(F)(F)F)c1", "note": "[CRT0105446, N-{5-[3-(4-Methoxy-2-trifluoromethyl-phenyl)-pyridin-4-yl]-hiazol-2-yl}-isobutyramide]", "values": [{"measurement": "remaining binding at 10 µM", "setting": "BMPR1A", "value": 100, "unit": "%"}, {"measurement": "remaining binding at 10 µM", "setting": "CAMK2A", "value": 82, "unit": "%"}, {"measurement": "remaining binding at 10 µM", "setting": "CAMKK2", "value": 95, "unit": "%"}, {"measurement": "remaining binding at 10 µM", "setting": "CDK5", "value": 60, "unit": "%"}, {"measurement": "remaining binding at 10 µM", "setting": "CDKL5", "value": 100, "unit": "%"}, {"measurement": "remaining binding at 10 µM", "setting": "CSNK1D", "value": 27, "unit": "%"}, {"measurement": "remaining binding at 10 µM", "setting": "DDR1", "value": 83, "unit": "%"}, {"measurement": "remaining binding at 10 µM", "setting": "DRAK2", "value": 100, "unit": "%"}, {"measurement": "remaining binding at 10 µM", "setting": "FLT3(K663Q)", "value": 34, "unit": "%"}, {"measurement": "remaining binding at 10 µM", "setting": "HIPK2", "value": 92, "unit": "%"}, {"measurement": "remaining binding at 10 µM", "setting": "MARK3", "value": 78, "unit": "%"}, {"measurement": "remaining binding at 10 µM", "setting": "MYO3A", "value": 100, "unit": "%"}, {"measurement": "remaining binding at 10 µM", "setting": "PAK3", "value": 4.6, "unit": "%"}, {"measurement": "remaining binding at 10 µM", "setting": "PDPK1", "value": 100, "unit": "%"}, {"measurement": "remaining binding at 10 µM", "setting": "PFCDPK1(P.falciparum)", "value": 30, "unit": "%"}, {"measurement": "remaining binding at 10 µM", "setting": "PFTK1", "value": 51, "unit": "%"}, {"measurement": "remaining binding at 10 µM", "setting": "PIK4CB", "value": 80, "unit": "%"}, {"measurement": "remaining binding at 10 µM", "setting": "PLK2", "value": 99, "unit": "%"}, {"measurement": "remaining binding at 10 µM", "setting": "PRKCH", "value": 100, "unit": "%"}, {"measurement": "remaining binding at 10 µM", "setting": "PRKD1", "value": 88, "unit": "%"}, {"measurement": "remaining binding at 10 µM", "setting": "PRKD3", "value": 98, "unit": "%"}, {"measurement": "remaining binding at 10 µM", "setting": "RET(V804M)", "value": 68, "unit": "%"}, {"measurement": "remaining binding at 10 µM", "setting": "STK39", "value": 100, "unit": "%"}]}, {"smiles": "Cc1ccc(-c2cnccc2-c2cnc(Nc3ccc(O)cc3)s2)c(Cl)c1", "note": "[CRT0105950, 4-{5-[3-(2-Chloro-4-methyl-phenyl)-pyridin-4-yl]-thiazol-2-ylamino}-phenol]", "values": [{"measurement": "remaining binding at 10 µM", "setting": "BMPR1A", "value": 91, "unit": "%"}, {"measurement": "remaining binding at 10 µM", "setting": "CAMK2A", "value": 33, "unit": "%"}, {"measurement": "remaining binding at 10 µM", "setting": "CAMKK2", "value": 43, "unit": "%"}, {"measurement": "remaining binding at 10 µM", "setting": "CDK5", "value": 12, "unit": "%"}, {"measurement": "remaining binding at 10 µM", "setting": "CDKL5", "value": 99, "unit": "%"}, {"measurement": "remaining binding at 10 µM", "setting": "CSNK1D", "value": 6.1, "unit": "%"}, {"measurement": "remaining binding at 10 µM", "setting": "DDR1", "value": 0.1, "unit": "%"}, {"measurement": "remaining binding at 10 µM", "setting": "DRAK2", "value": 100, "unit": "%"}, {"measurement": "remaining binding at 10 µM", "setting": "FLT3(K663Q)", "value": 0.5, "unit": "%"}, {"measurement": "remaining binding at 10 µM", "setting": "HIPK2", "value": 55, "unit": "%"}, {"measurement": "remaining binding at 10 µM", "setting": "MARK3", "value": 51, "unit": "%"}, {"measurement": "remaining binding at 10 µM", "setting": "MYO3A", "value": 65, "unit": "%"}, {"measurement": "remaining binding at 10 µM", "setting": "PAK3", "value": 4.1, "unit": "%"}, {"measurement": "remaining binding at 10 µM", "setting": "PDPK1", "value": 28, "unit": "%"}, {"measurement": "remaining binding at 10 µM", "setting": "PFCDPK1(P.falciparum)", "value": 17, "unit": "%"}, {"measurement": "remaining binding at 10 µM", "setting": "PFTK1", "value": 47, "unit": "%"}, {"measurement": "remaining binding at 10 µM", "setting": "PIK4CB", "value": 2.9, "unit": "%"}, {"measurement": "remaining binding at 10 µM", "setting": "PLK2", "value": 9, "unit": "%"}, {"measurement": "remaining binding at 10 µM", "setting": "PRKCH", "value": 49, "unit": "%"}, {"measurement": "remaining binding at 10 µM", "setting": "PRKD1", "value": 18, "unit": "%"}, {"measurement": "remaining binding at 10 µM", "setting": "PRKD3", "value": 11, "unit": "%"}, {"measurement": "remaining binding at 10 µM", "setting": "RET(V804M)", "value": 3.4, "unit": "%"}, {"measurement": "remaining binding at 10 µM", "setting": "STK39", "value": 100, "unit": "%"}]}]}
